Measurements reported in patent US20070054848A1, “Composition and method for nerve regeneration” (priority 2003, published 2007).

Legend:
[1] = system: cerebellar granule neurons from P7 rats; assay: Neurite outgrowth assay, cerebellar neurons; format: cell-based, rat; conditions: cerebellar granule neurons; data not shown
Rho-kinase [2] = target: T1, Rho-kinase (Bos taurus, UniProt Q28021); assay: Rho-kinase kinase assay with lysates of transfected 293T cells; format: cell-based; conditions: 293T cells transfected with myc-Rho-kinase; Y-27632 10 μM for 30 minutes
T1 sequence (Q28021 whole entry): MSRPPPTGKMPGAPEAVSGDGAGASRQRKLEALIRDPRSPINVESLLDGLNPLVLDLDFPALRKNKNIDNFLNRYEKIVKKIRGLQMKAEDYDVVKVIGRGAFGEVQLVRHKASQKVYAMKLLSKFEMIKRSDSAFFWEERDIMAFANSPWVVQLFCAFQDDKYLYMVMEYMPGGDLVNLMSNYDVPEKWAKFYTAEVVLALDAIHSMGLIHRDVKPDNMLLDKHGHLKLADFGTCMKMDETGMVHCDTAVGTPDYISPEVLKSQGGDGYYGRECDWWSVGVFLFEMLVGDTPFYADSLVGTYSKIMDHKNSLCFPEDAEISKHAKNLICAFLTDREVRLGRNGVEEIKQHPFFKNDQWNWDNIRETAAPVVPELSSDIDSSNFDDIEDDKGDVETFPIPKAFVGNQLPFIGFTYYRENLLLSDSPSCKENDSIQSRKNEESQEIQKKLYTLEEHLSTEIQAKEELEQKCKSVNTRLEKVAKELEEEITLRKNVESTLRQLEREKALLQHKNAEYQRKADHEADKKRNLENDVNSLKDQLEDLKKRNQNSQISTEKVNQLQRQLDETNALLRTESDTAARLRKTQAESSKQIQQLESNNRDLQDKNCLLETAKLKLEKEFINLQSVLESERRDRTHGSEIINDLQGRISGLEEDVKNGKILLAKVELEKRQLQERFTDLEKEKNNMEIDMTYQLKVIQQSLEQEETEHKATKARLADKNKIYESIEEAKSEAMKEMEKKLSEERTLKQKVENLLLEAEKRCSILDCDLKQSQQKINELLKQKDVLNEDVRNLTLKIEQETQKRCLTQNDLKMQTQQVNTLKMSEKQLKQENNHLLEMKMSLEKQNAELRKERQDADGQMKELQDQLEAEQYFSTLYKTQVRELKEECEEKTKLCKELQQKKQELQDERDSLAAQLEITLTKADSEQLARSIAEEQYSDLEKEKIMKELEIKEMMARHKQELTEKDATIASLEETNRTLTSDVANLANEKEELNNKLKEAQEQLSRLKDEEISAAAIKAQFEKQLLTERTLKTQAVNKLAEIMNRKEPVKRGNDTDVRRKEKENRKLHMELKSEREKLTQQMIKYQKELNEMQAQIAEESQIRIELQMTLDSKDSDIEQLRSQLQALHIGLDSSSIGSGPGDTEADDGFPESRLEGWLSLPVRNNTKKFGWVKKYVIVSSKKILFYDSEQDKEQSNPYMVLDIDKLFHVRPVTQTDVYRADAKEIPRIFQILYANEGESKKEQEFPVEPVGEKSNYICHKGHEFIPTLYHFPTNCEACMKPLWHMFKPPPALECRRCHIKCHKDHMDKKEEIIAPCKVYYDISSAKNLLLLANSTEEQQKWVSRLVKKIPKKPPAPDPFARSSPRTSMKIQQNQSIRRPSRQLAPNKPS
Protocol: Cells were lysed with lysis buffer (50 mM Tris-HCl (pH 7.5), 150 mM NaCl, 10% glycerol, 1% Nonidet-P40 and protease inhibitor cocktail). The kinase assay was carried out using the lysates.

N1E-115 cells [3] = assay: Morphological analysis of N1E-115 cells; format: cell-based; conditions: for neurite formation / population with long neurites: Y-27632 10 μM for 30 minutes, constructs 48 hours after transfection
Protocol: N1E-115 cells were transfected with GFP, GFP-full-p21 or GFP-ΔNLS-p21, and cultured in serum-starved condition for 5 hours. Then, the medium was replaced with DMEM containing 10% fetal bovine serum. The cells were fixed at 48 hours after transfection. The morphology of the cells was categorized into 3 groups; neurite positive cells, round cells and the other cells. The cells with longer neurites than their soma were defined as neurite positive cells. The other cells had various features including microspikes, ruffles and a flattened appearance.

[4] = target: catalytic domain of Rho-kinase (GST-CAT) (Bos taurus, UniProt Q28021); assay: In vitro binding assay of p21 and Rho-kinase (GST-CAT); conditions: co-incubated at the indicated concentrations
Chain of catalytic domain of Rho-kinase (GST-CAT) (Q28021 6-553 limits assumed): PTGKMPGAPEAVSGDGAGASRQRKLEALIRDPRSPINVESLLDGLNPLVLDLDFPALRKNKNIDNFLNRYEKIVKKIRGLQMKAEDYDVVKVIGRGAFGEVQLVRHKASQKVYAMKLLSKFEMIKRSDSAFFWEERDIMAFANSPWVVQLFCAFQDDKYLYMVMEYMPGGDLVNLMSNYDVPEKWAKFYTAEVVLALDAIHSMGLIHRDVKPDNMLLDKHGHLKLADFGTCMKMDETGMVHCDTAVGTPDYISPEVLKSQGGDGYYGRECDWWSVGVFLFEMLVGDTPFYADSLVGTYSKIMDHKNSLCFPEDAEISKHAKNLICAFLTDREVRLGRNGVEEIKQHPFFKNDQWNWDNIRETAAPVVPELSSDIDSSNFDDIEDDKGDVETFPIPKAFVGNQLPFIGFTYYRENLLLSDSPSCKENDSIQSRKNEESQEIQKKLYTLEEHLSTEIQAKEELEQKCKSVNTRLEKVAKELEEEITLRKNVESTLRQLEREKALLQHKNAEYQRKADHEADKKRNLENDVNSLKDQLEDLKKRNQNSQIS

[5] = target: T2, Recombinant human p75-Fc chimera (Homo sapiens, UniProt P08138); assay: Co-precipitation of recombinant p75 and gangliosides; format: binding; conditions: precipitation with protein A sepharose, Western blot
T2 construct: Recombinant p75 extracellular domain fused to Fc purified from Sf21 cells; purchased Genzyme-Techne; host or cells: Sf21 cells
T2 sequence (P08138 29-250 limits assumed): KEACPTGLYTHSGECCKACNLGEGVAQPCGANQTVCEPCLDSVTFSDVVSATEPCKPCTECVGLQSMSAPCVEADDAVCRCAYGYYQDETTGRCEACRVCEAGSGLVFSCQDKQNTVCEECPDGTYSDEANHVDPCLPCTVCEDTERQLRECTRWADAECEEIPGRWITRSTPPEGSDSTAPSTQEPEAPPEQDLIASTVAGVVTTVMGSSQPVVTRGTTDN
Protocol: Recombinant human p75-Fc chimera (1 μg; Genzyme-Techne) and 1 μg of purified ganglioside GT1b (>98% purity, Seikagaku Co.) were incubated in 200 μl 0.025% Tween20/PBS for 2 h, and p75 was precipitated using proteinA sepharose (Amersham Pharmacia Biotech). The resultant precipitates were electrophoretically transferred to polyvinylidene difluoride membranes after SDS-PAGE with 7% gels and were immunoblotted with anti GT1b antibody (IgM, Seikagaku Co.) or anti p75 antibody.

RhoA = assay: Affinity-precipitation of GTP-RhoA in cerebellar neurons; format: cell-based, mice; conditions: post-natal cerebellar neurons, wild type; MAG-Fc 25 μg/ml, Nogo peptide 4 μM
Protocol: 293 cells were transfected with pcDNA3 vectors containing wild type RhoA whose NH2-terminus is tagged with HA (Yamashita, T. et al., Neuron. 24:585-593, 1999) and/or full-length human p75 by lipofection using Lipofectamine 2000 (Gibco BRL). Cerebellar neurons from P9 mice were isolated as described previously (Cai et. al, Neuron, 22:89-101, 1999). Cells were lysed in 50 mM Tris (pH 7.5), 1% Triton X-100, 0.5% sodium deoxycholate, 0.1% SDS, 500 mM NaCl, 10 mM MgCl2, with leupeptin and aprotinin, each at 10 μg/ml. Cell lysates were clarified by centrifugation at 13,000×g at 4° C. for 10 min, and the supernatants were incubated with the 20 μg of GST-Rho binding domain of Rhotekin beads (Upstate Biotech.) at 4° C. for 45 min. The beads were washed 4 times with washing buffer (50 mM Tris (pH 7.5) containing 1% Triton X-100, 150 mM NaCl, 10 mM MgCl2, 10 μg/ml each of leupeptin and aprotinin). Bound Rho proteins were detected by Western blotting using a monoclonal antibody against RhoA (Santa Cruz Biotechnology).
Amino-terminally FLAG-tagged human p75 or the deletion mutants of p75 ICD were cloned into pcDNA3.1 expression plasmid, and were transfected with 293T cells. […] Bound Rho proteins were detected by Western blotting using a monoclonal antibody against RhoA (Santa Cruz Biotechnology).

[6] = target: T3, interaction of p75 with Rho GDI (Homo sapiens, UniProt P08138); assay: Co-immunoprecipitation of p75 with Rho GDI or RhoA in transfected N1E-115 cells; format: cell-based; conditions: N1E-115 cells transfected with FLAG-tagged p75; Nogo peptide 4 μM, MAG-Fc 25 μg/ml, NGF 100 ng/ml
T3 construct: expressed in transfected cells; host or cells: N1E-115 cells
T3 sequence (P08138 29-427): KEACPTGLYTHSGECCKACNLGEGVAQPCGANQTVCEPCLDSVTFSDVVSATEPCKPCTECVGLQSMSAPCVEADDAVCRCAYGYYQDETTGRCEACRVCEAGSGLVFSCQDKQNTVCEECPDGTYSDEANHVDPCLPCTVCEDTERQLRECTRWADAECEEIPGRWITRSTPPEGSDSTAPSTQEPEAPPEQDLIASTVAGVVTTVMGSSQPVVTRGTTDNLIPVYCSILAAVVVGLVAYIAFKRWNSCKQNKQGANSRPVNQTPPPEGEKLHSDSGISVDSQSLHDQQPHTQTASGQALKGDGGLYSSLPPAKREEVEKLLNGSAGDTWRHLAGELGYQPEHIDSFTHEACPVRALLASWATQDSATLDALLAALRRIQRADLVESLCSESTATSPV

cerebellar neurons = assay: Neurite outgrowth assay, post-natal cerebellar neurons; format: cell-based, mice; conditions: cerebellar neurons transfected with myc-tagged Rho GDI
p75 = target: T4, p75 (Homo sapiens, UniProt P08138); assay: Co-precipitation of p75 and Rho GDI with purified recombinant proteins; format: binding; conditions: p75 precipitated from transfected 293T cells; purified recombinant proteins
T4 construct: host or cells: 293T cells (p75)
T4 sequence (P08138 29-427): T3 sequence (P08138 29-427)

N1E-115 cells [7] = assay: Growth and differentiation of N1E-115 cells; format: cell-based; conditions: for proliferation of N1E-115 cells: until 48 hours after transfection
Protocol: Cells were seeded in 6-cm dishes, transfected, and were counted 1 and 2 days after transfection. The relative increases in the number of the cells are shown. The values are means±SEM of 3 independent experiments. *, p<0.01 compared with full-p21 (Student's t-test). There is no significant difference between GFP and GFP-ΔNLS-p21 transfected cells. […] N1E-115 cells were treated with DMSO, or transfected with GFP-full-p21 or GFP-ΔNLS-p21, then were harvested at 1, 2, 3 and 4 days. Arrowheads indicate hyperphosphorylated pRb, and the arrow indicates underphosphorylated pRb. […] Shown are photomicrographs of the cells transfected with each construct. […] N1E-115 cells exposed to Y-27632 (10 μM) for 30 minutes or expressing GFP, GFP-full-p21 or GFP-ΔNLS-p21 were categorized into 3 groups; the cells with long neurites (long neurite), cells with a round form (round), and cells with other forms (others). Data represent means±SEM of 3 independent experiments. *, p<0.05 compared with control. **, p<0.01 compared with control as well as full-p21 (Student's t-test).
(§1) NIH3T3 cells, N1E-115 cells and 293T cells were maintained in DMEM containing 10% fetal bovine serum. Lipofectamine 2000 (Invitrogen) was used for transfection. For the stress fiber formation assay, NIH3T3 cells were cultured in serum-free medium for 16 hours after transfection. Stress fiber formation was evoked by incubating the cells with 10% serum for 10 minutes. Hippocampal neurons were prepared from 18-day-old Sprague-Dawley rats, as previously described (Neumann, H. et al., Science. 269:549-552, 1995). Briefly, hippocampi were dissected and the meninges removed. The trimmed tissue was dissociated by trituration. The dissociated cells were plated on dishes pre-coated with poly-L-lysine (Sigma), and cultured in DMEM containing 10% fetal bovine serum for 24 hours. Then, the medium was replaced with DMEM with B27 supplement (Invitrogen), and the cells were transfected with GFP or GFP-ΔNLS-p21. Neuronal morphology was estimated at 24 hours after the transfection.

NIH3T3 cells = assay: Stress fiber formation assay in NIH3T3 cells; format: cell-based; conditions: serum-starved 16 hours, 10% serum 10 minutes
Protocol: as §1

Rho-kinase [8] = target: T1, Rho-kinase; assay: Co-immunoprecipitation of p21 constructs and Rho-kinase in 293T cells; format: cell-based; conditions: anti-p21 antibody
Protocol: 293T cells were transfected with myc-Rho-kinase in combination with GFP-full-p21 or GFP-ΔNLS-p21. At 48 hours after transfection, the cells were lysed with 1 ml of lysis buffer (50 mM Tris-HCl (pH 7.5), 150 mM NaCl, 10% glycerol, 0.5% Nonidet-P40 including protease inhibitor cocktail tablets (Roche). The cell lysates were centrifuged at 13,000×g for 20 minutes, and the supernatant was collected. Immunoprecipitations were performed for 2 hours at 4° C. using an anti-p21 mouse monoclonal antibody (Santa Cruz Biotechnology) and 0.75 ml of the supernatant. The immunocomplexes were collected with protein G-Sepharose (Amersham Pharmacia Biotech) slurry (50% v/v), washed 4 times with lysis buffer, and subjected to SDS-PAGE. They were transferred to the polyvinylidene difluoride membranes and probed with the anti-myc rabbit polyclonal antibody (Santa Cruz Biotechnology). Interaction of endogenous proteins in N1E-115 cells was assessed in the same way using anti Rho-kinase antibody.

hippocampal neurons = assay: Neurite outgrowth and branching of hippocampal neurons; format: cell-based; conditions: rat E18 hippocampal neurons, 24 hours after transfection
Protocol: as §1
Cultures of the hippocampal neurons from rat E18 embryos were used. […] Twenty-four hours after transfection, the cells were fixed and immunolabeled with β-tubulin III. The total neurite length per neuron, the axonal length, defined as the length of the longest neurite per neuron, the number of primary processes originating from the neuronal somata, and the number of branch points per neuron were determined (Neumann, H. et al., J. Neurosci. 22:854-862, 2002).

Cn1c2ccccc2c2c3c(c4c5ccccc5n(CCC#N)c4c21)CNC3=O [G06976]
neurite outgrowth response to MAG-Fc or Nogo peptide with another PKC inhibitor [1]: Same results were obtained

C[C@@H](N)[C@H]1CC[C@H](C(=O)Nc2ccncc2)CC1 [Y-27632, reference compound]
Rho-kinase activity (compared to the original) (Rho-kinase [2]): 51.9% | neurite formation / population with long neurites (N1E-115 cells [3]): induced significant neurite formation | interaction of p21 with Rho-kinase [4]: inhibited the interaction of p21 with Rho-kinase in a dose dependent manner

AKRRRLSSLRA [S6 kinase substrate peptide]
interaction of p21 with Rho-kinase [4]: inhibited the interaction of p21 with Rho-kinase in a dose dependent manner

GD1a
association with recombinant p75 extracellular domain fused to Fc [5]: did not see any interaction

GT1b
association with recombinant p75 extracellular domain fused to Fc [5]: binds to p75 in a manner that is SDS-resistant

NGF: Nerve growth factor [reference compound]
RhoA activity (RhoA): rapidly inhibits RhoA activity | interaction of p75 with Rho GDI as well as RhoA [6]: abolished the interaction

Rho GDI: Rho GDP dissociation inhibitor; recombinant protein or myc-tagged Rho GDI plasmid over-expression
effect of over-expression on inhibition of neurite outgrowth by MAG and the Nogo peptide (cerebellar neurons): abolished these inhibitory effects | direct physical interaction with p75 (p75): bound to p75

RhoA: bacterially produced RhoA, GDP-bound, GTP-bound or nucleotide-depleted
direct physical interaction with p75 (p75): no interaction between them in any nucleotide state

full-length p21: pEGFP-full-p21 (aa 1-164), mammalian expression vector for GFP fused protein
Rho-kinase activity (compared to the original) (Rho-kinase [2]): no significant effect | neurite formation / population with long neurites (N1E-115 cells [3]): no increase in the cell population that had long neurites | proliferation of N1E-115 cells (N1E-115 cells [7]): stopped proliferation | actin stress fiber formation after the addition of serum (NIH3T3 cells): Extensive actin stress fibers were observed | co-immunoprecipitation of myc-tagged Rho-kinase (Rho-kinase [8]): only a faint signal could be detected

ΔNLS-p21: p21 with loss of nuclear localization signal (aa 1-140), expressed as GFP fused protein
Rho-kinase activity (compared to the original) (Rho-kinase [2]): 48.1% | cells that extended long neurites (N1E-115 cells [3]; 48 hours after transfection): more than 45% | increase of cells with long neurites compared to the control (N1E-115 cells [3]; 48 hours after transfection): 3.1 fold | differentiation inducing activity (N1E-115 cells [7]; cyclin D3 and pRb Western blot): has no differentiation inducing activity | proliferation of N1E-115 cells (N1E-115 cells [7]): proliferated until 48 hours after transfection | actin stress fiber formation after the addition of serum (NIH3T3 cells): little stress fiber formation | co-immunoprecipitation of myc-tagged Rho-kinase (Rho-kinase [8]): efficiently precipitated myc-tagged Rho-kinase | number of primary processes (hippocampal neurons): no change in the number of primary processes | number of branch points per neuron (hippocampal neurons; control 1.3): 2.6 | axonal length (length of the longest neurite per neuron) (hippocampal neurons; control 66.3): 162.9 μm | total neurite length per neuron (hippocampal neurons; control 135.9): 307.2 μm
